Experimental data reported in US7456223B2, “Treatment of bruxism” (priority 2004, dated 2008).

Assays:
[1] = system: skeletal muscle spasm; settings: after application
Source text: Cyclobenzaprine is a 5-HT2 receptor antagonist and its muscle relaxant effect is due to inhibition of serotonergic neurons.

[2] = taken orally; cited from earlier work
[3] = taken orally; cited from earlier work; remark: listed apart in the source

## CN(C)CCC=C1c2ccccc2C=Cc2ccccc21 [cyclobenzaprine]
[1]
  time to clinical improvement (local pain and tenderness, range of motion): ≤ 20 min
[2]
  half life: one to three
[3]
  binding to plasma proteins: highly bound to plasma proteins
